Read-outs that look alike come from different tables or passages of the source.

Results on 5 compounds are retold here after patent US8299262B2, “Pyridylmethyl-sulfonamide compounds” (BASF SE, priority 2007, dated 2012).

The test system of one experiment is Colletotrichum truncatum. The experiment in a line: Synergistic mixtures, microtiter test, Colletotrichum truncatum (Use Example 28). Format: cell-based. The note with it: single compound.
Another experiment deals with Pyricularia oryzae. Format: cell-based. The note with it: single compound.
Another experiment has as its system Phakopsora pachyrhizi. The experiment in a line: Comparative greenhouse test, curative action against soybean rust Phakopsora pachyrhizi (Use Example 22). The experiment is classed as in vivo. The note with it: curative spray on soybean, untreated control 100. As for the experimental part: The active compounds were formulated separately or together as a stock solution comprising 25 mg of active compound which was made up to 10 ml using a mixture of acetone and/or dimethyl sulfoxide (DMSO) and the emulsifier Wettol EM 31 (wetting agent having emulsifying and dispersing action based on ethoxylated alkylphenols) in a volume ratio of solvent/emulsifier of 99 to 1. This solution was then made up to 100 ml using water. This stock solution was diluted with the solvent/emulsifier/water mixture described to the active compound concentration given below.
Leaves of potted soybean seedlings were dusted with a suspension of spores of rust of soybean (Phakopsora pachyrhizi). The plants were then placed in a chamber with high atmospheric humidity (90 to 95%), at 23 to 27° C., for 24 hours. During this time, the spores germinated and the germinal tubes penetrated into the leaf tissue. The next day, the infected plants were sprayed to runoff point with an aqueous suspension having the concentration of active compound stated in table 4 (250 ppm). After drying of the sprayed suspension, the test plants were returned to the greenhouse and cultivated at temperatures between 23 and 27° C. and at 60 to 80% relative atmospheric humidity for a further 14 days. The extent of the rust development on the leaves was then determined visually.

The next experiment concerns Pyrenophora teres. Briefly: Synergistic mixtures, microtiter test, net blotch pathogen Pyrenophora teres (Use Example 29). The experiment is classed as cell-based. Particulars: single compound.
A further experiment deals with Thielaviopsis basicola. The experiment in a line: Synergistic mixtures, microtiter test, Thielaviopsis basicola (Use Example 31). Format: cell-based. The note with it: single compound.
The test system of another experiment is Alternaria solani. Briefly: Synergistic mixtures, microtiter test, early blight pathogen Alternaria solani (Use Example 24). The experiment is classed as cell-based. The note with it: single compound, 0.063 ppm.
The test system of a further experiment is Gaeumannomyces graminis. Briefly: Synergistic mixtures, microtiter test, Gaeumannomyces graminis (Use Example 30). Particulars: single compound. Format: cell-based.
For the next experiment, the system named is Fusarium culmorum. Briefly: Synergistic mixtures, microtiter test, Fusarium culmorum (Use Example 27). Format: cell-based. The note with it: single compound.
A further experiment concerns Puccinia recondita. The experiment in a line: Synergistic mixtures, greenhouse, preventative control of brown rust on wheat caused by Puccinia recondita (Use Example 34). The experiment is classed as in vivo. Particulars: single compound, untreated control 90% disease. As for the experimental part:
These percentages were converted into efficacies. An efficacy of 0 means that the growth level of the pathogens corresponds to that of the untreated control; an efficacy of 100 means that the pathogens were not growing.
The expected efficacies of active compound mixtures were determined using Colby's formula [R. S. Colby, Calculating synergistic and antagonistic responses of herbicide combinations, Weeds 15, 20-22 (1967)] and compared with the observed efficacies. E=x+y−x·y/100 Colby's formula • E expected efficacy, expressed in % of the untreated control, when using the mixture of the compounds A and B at the concentration a and b • x efficacy, expressed in % of the untreated control, when using compound A at a concentration of a • y efficacy, expressed in % of the untreated control, when using compound B at a concentration of b A) Microtiter Tests
The spray solutions were prepared in several steps:
The stock solution were prepared as follows: a mixture of acetone and/or dimethylsulfoxide and the wetting agent/emulsifier Wettol, which is based on ethoxylated alkylphenoles, in a relation (volume) solvent-emulsifier of 99 to 1 was added to 25 mg of the compound to give a total of 10 ml. Water was then added to total volume of 100 ml.
This stock solution was diluted with the described solvent-emulsifier-water mixture to the given concentration. The compounds pyraclostrobin, boscalid and epoxiconazole were used as commercial finished formulations and diluted with water to the stated concentration of the active compound.
The first two developed leaves of pot-grown wheat seedling were sprayed to run-off with an aqueous suspension, containing the concentration of active ingredient or their mixture as described below. The next day the plants were inoculated with spores of Puccinia recondita. To ensure the success the artificial inoculation, the plants were transferred to a humid chamber without light and a relative humidity of 95 to 99% and at temperatures between 20 and 24° C. for 24 h. Then, the plants were cultivated for 6 days in a greenhouse chamber at 20 to 24° C. and a relative humidity between 65 and 70%. The extent of fungal attack on the leaves was visually assessed as % diseased leaf area.

The next experiment deals with Septoria tritici. Briefly: Synergistic mixtures, microtiter test, leaf blotch pathogen Septoria tritici (Use Example 26). Format: cell-based. Particulars: single compound, 4 ppm.
The subject of another experiment is Septoria glycines. Briefly: Microtiter test, Septoria glycines (Use Example 7). The experiment is classed as cell-based. The note with it: 125 ppm; control =100%, day 7.
A further experiment concerns Phytophthora infestans. The experiment is classed as cell-based. Particulars: single compound, 0.00025 ppm.
The next experiment concerns Fusarium oxysporum. The note with it: single compound.
A further experiment concerns Verticillium dahliae. Particulars: single compound, 4 ppm.

Turning to `Cc1nccc(CNS(=O)(=O)c2ccc(Oc3ccccn3)cc2)c1C` [Example 33], the “Observed efficacy (%)” value turned out to be 24% with Colletotrichum truncatum (4 ppm); 38% in the experiment on Pyricularia oryzae (0.25 ppm); 0% in the experiment with Pyrenophora teres (0.25 ppm); 9% with Thielaviopsis basicola (16 ppm); 4% in the experiment with Alternaria solani; 4% in the experiment with Gaeumannomyces graminis (0.063 ppm). Besides, the “Observed efficacy (%)” value in the experiment on Gaeumannomyces graminis (0.25 ppm) worked out at 21%; with Fusarium culmorum (16 ppm) it was 1%; in the experiment with Puccinia recondita (16 ppm), 33%; with Septoria tritici, 22%. Moreover, the “infection in [%] at 250 ppm” value in the experiment on Phakopsora pachyrhizi worked out at 5%.
As to `Cc1nccc(CNS(=O)(=O)c2ccc(Oc3ccccc3)cc2)c1C` [comparative example 2, reference compound], in the experiment on Phakopsora pachyrhizi, the “infection in [%] at 250 ppm” value is given as 100%.
On to `COc1cnccc1CNS(=O)(=O)c1ccc(Oc2ccccn2)cc1` [Example 8], for which the “Observed efficacy (%)” value with Pyrenophora teres (0.25 ppm) worked out at 0%; with Pyrenophora teres (1 ppm), 9%; with Thielaviopsis basicola (4 ppm), 11%; with Thielaviopsis basicola (16 ppm), 6%; in the experiment on Alternaria solani it was 3%; in the experiment with Gaeumannomyces graminis (0.063 ppm), 0%. Further, the “Observed efficacy (%)” value in the experiment on Fusarium culmorum (16 ppm) worked out at 0%. The “relative growth of the pathogen” value in the experiment with Septoria glycines is on record as “at most 25%”.
`COC(=O)N(OC)c1ccccc1COc1ccn(-c2ccc(Cl)cc2)n1` [Pyraclostrobin, reference compound]: the “Observed efficacy (%)” value came to 27% in the experiment with Colletotrichum truncatum (0.063 ppm); 60% with Colletotrichum truncatum (0.25 ppm); 17% with Pyricularia oryzae (0.001 ppm); 52% in the experiment on Pyrenophora teres (0.016 ppm); 19% in the experiment on Thielaviopsis basicola (0.25 ppm); 29% with Gaeumannomyces graminis (0.00025 ppm). Besides, the “Observed efficacy (%)” value in the experiment on Gaeumannomyces graminis (0.001 ppm) is given as 57%; in the experiment with Fusarium culmorum (0.25 ppm), 0%; with Puccinia recondita (0.016 ppm) it was 0%; in the experiment with Puccinia recondita (0.063 ppm) it was 0%; in the experiment on Puccinia recondita (0.25 ppm), 0%; with Phytophthora infestans it was 8%. Further, the “Observed efficacy (%)” value in the experiment with Fusarium oxysporum (0.25 ppm) was 0%.
As to `Cc1nccc(CNS(=O)(=O)c2ccc(Oc3ncc(C(F)(F)F)cc3Cl)cc2)c1C` [Example 27], the “Observed efficacy (%)” value with Colletotrichum truncatum (16 ppm) was found to be 45%; with Verticillium dahliae it was 56%; in the experiment with Pyricularia oryzae (0.063 ppm), 65%; with Pyricularia oryzae (0.25 ppm) it was 65%; with Pyrenophora teres (1 ppm) it was 31%; with Thielaviopsis basicola (1 ppm), 1%. Moreover, the “Observed efficacy (%)” value with Thielaviopsis basicola (4 ppm) turned out to be 21%; in the experiment with Gaeumannomyces graminis (0.016 ppm), 58%; with Fusarium culmorum (16 ppm) it was 0%; in the experiment on Puccinia recondita (4 ppm), 0%; in the experiment on Puccinia recondita (16 ppm), 22%; in the experiment on Septoria tritici, 47%. For the same compound, the “Observed efficacy (%)” value in the experiment on Fusarium oxysporum (16 ppm) is listed as 13%.
